Measured values taken from patent US20150025031A1, “METABOLIC DOWNREGULATION FOR CELL SURVIVAL” (WAKE FOREST UNIVERSITY HEALTH SCIENCES, priority 2012, published 2015).
Entries after “also recorded” stand apart in the source; their conditions may differ.

Experiments:
[1] = target: T1, adenosine deaminase (ADA) (Homo sapiens, UniProt P00813); test: Cell viability with adenosine derivatives in presence or absence of ADA, normoxic conditions (Example 2); format: cell-based; settings: for conversion by ADA / stability towards adenosine degrading enzymes: presence of ADA
T1 construct: purchased Sigma
T1 sequence (P00813 1-363): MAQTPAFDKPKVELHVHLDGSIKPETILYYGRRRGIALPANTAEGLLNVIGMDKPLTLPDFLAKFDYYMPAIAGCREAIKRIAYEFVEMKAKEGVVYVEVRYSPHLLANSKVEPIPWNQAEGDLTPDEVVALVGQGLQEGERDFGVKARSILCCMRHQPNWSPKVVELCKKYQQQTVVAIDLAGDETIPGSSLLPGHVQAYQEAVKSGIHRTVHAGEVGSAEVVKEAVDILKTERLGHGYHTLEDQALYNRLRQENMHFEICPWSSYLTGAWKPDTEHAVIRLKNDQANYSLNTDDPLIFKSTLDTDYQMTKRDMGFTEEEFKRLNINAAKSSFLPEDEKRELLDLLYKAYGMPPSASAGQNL
Protocol: Three known ADA inhibitors were examined to evaluate the efficacies of adenosine derivatives: cladribine, pentostatin, and fludarabine phosphate. They have similar structures and molecular weights compared to adenosine, but different functional groups in the structures. Metabolic rate of cells were indirectly analyzed by cell viability in the presence or absence of adenosine derivatives and ADA in various doses. Cell viability with the drugs was evaluated under normoxic conditions.
Adenosine (Sigma-Aldrich), cladribine (Sigma, 2-Chloro-2′-deoxyadenosine), pentostatin (Tocris biosciences), and fludarabine phosphate (LGM Pharma) were used throughout this study.

ischemic skin flap = test: Ischemic skin flap model; format: in vivo, nude mice; settings: 100 mM in 2% agarose gel, vs control
Protocol: (§1) Skin flap model: The u-shaped skin flaps were created on the back of the nude mice, then silicone sheet with 100 mM CDA-containing 2% agarose gel on top of it was placed subcutaneously between muscle and skin layer (FIGS. 9A-9B). Control group received only the materials without CDA incorporated (n=3 per each group). At day 3, the flap necrosis was photographed, and H&E sections were prepared and microscopically examined.
as §1, with “The” for “Skin flap model: The”, “gel (A9045, Sigma)” for “gel”, “(FIG. 29A).” for “(FIGS. 9A-9B).”, “(n=3).” for “(n=3 per each group).”, “were” for “were prepared and”

[2] = tested on: tibialis anterior (TA) muscle; test: Compartment syndrome (compression injury) model, tibialis anterior muscle function; format: in vivo, Sprague Dawley rats; settings: for recovery in muscle function vs control group / percent recovery of muscle function: tetanic outcome at 100 Hz
Protocol: Compartment syndrome model: Neonatal blood pressure cuffs were placed on the hind limbs of Sprague Dawley rats. A pressure of 130-140 mmHg was held for 3 hrs to induce compartment syndrome in the tibialis anterior (TA) muscle. The experimental group received 50 mM CDA in 300 uL saline daily up to day 2 after injury whereas the control group only received an equal volume of saline (n=6 per each group). The measurement of muscle tetanic force was used to assess in vivo muscle function at before injury and day 3 & 7.
All animal studies were performed in strict compliance with Wake Forest University IACUC and NIH guidelines. Male Lewis rats (6-8 weeks old, Harlan) were anesthetized with 2-3% isofluorane prior to all procedures. A #2 sized neonatal blood pressure cuff (Trimline Medical Products Tempa-Kuff) was tightened around the hind limb proximal to the extensor digitorum longus (EDL) muscle. The time and amount of pressure used varied as indicated. Due to the extended length of anesthesia, rats were administered IP injections of saline over the course of the procedure. Rats were euthanized at 1, 2, 4, 7, 14 or 35d post injury. At least 3 separate experiments were analyzed.
Neonatal blood pressure cuffs were placed on the hind limbs of Sprague Dawley rats. A pressure of 130-140 mmHg was held for 3 hours to induce compartment syndrome in the tibialis anterior (TA) muscle. The experimental group received injection of 30 mM cladribine in 200 μL saline daily up to day 2 after injury whereas the control group only received an equal volume of saline (n=6). The measurement of muscle tetanic force was used to assess in vivo muscle function at before and right after injury, day 3, 7, 11 and 14.
Contractile function (i.e., torque-frequency relationship) of the left anterior crural muscles was measured in vivo using similar methodology as previously described for mice (Kalka et al., 2000, Proc Natl Acad Sci USA 97:3422-3427; Boutilier, 2001, J Exp Biol 204:3171-3181) After rats were anesthetized (2-2.5% isoflurane), the left hindlimb was aseptically prepared. The rat was then placed on a heated platform. The left knee was clamped and the left foot was secured to a custom-made foot plate that is attached to the shaft of an Aurora Scientific 305C-LR-FP servomotor, which in turn was controlled using a PC. Sterilized percutaneous needle electrodes were inserted through the skin for stimulation of the left common peroneal nerve. Electrical stimulus was applied using a Grass S88 stimulator with a constant current SIU (Grass Model PSIU6). Stimulation voltage and needle electrode placement were optimized first with a series of twitch contractions at 1 hz and then with 5 to 10 isometric contractions (400 ms train of 0.05-0.1 ms pulses at 100 Hz). Contractile function of the anterior crural muscles was assessed by measuring maximal isometric torque as a function of stimulation frequency (1-200 Hz). For real-time analysis of torque and length changes, voltage outputs were sampled at 4000 Hz, converted to a digital signal using an A/D board (National Instruments PCI 6221) and recorded using a PC loaded with a custom-made Labview®-based program (provided by the U.S. Army Institute of Surgical Research).

[3] = tested on: Rat tibialis anterior (TA) muscle tissues; test: In vitro ischemic tibialis anterior muscle tissue survival (H&E, TUNEL); format: cell-based, Sprague Dawley rats; settings: 5 mM injected, 3 days incubation
Protocol: Rat tibialis anterior (TA) muscle tissues were dissected immediately after sacrifice of Sprague Dawley rats (17 weeks old, 380-400 g, Harlan), injected with blank, 5 mM of adenosine or cladribine, and then incubated in 5 mL of complete media for 3 days.
The tissue samples were fixed in 10% neutral buffered formalin (Sigma-Aldrich), 6 μm sections were generated by a cryotome (Leica), and stained with hematoxyline and eosin (H&E) and with TUNEL staining. Microscopic analyses were performed using a light microscope (Zeiss M1) and ImagePro software.

C2C12 mouse myoblasts [4] = settings: 5 mM, regardless of the presence of ADA
C2C12 mouse myoblasts [5] = tested on: C2C12 mouse myoblasts

## Nc1nc(Cl)nc2c1ncn2[C@H]1C[C@H](O)[C@@H](CO)O1 [cladribine, 2-Chloro-2′-deoxyadenosine]
[1]; drugs removed on day 5
  recovery of metabolic state after drug removal: recovered their normal metabolic state once the drugs were removed
[1]; normoxic conditions, with or without ADA, various doses
  depression of cell metabolic rate (cell viability) in presence of ADA: best able to inhibit ADA and depress the cells' metabolic rate; also recorded: maintained the cells in hypometabolic steady state the longest
[1]
  conversion by ADA / stability towards adenosine degrading enzymes: bypassed the conversion by ADA
[1]; listed as CDA
  conversion by ADA / stability towards adenosine degrading enzymes: more stable than adenosine in the presence of adenosine degrading enzymes
Ischemic skin flap; 3 days
  histological examination of skin flap (H&E): better preservation of general tissue architecture, thickness of the skin and epidermis height
Ischemic skin flap; subcutaneous, day 3 post-operation
  distal flap necrosis (skin discoloration): clearly reduced
[2]; 30 mM in 200 μL saline daily up to day 2, 7 days after injury
  TA muscle twitch isometric torque: significantly increased
[2]; 30 mM in 200 μL saline daily up to day 2
  recovery in muscle function vs control group: significant acceleration of recovery in muscle function
[2]; 30 mM in 200 μL saline daily up to day 2, listed as CDA
  recovery in muscle function vs control group: significant increase in percent recovery up to day 11
[2]; 30 mM in 200 μL saline daily up to day 2, vs saline group
  newly forming vessels (H&E, immunostaining): more newly forming vessels
[2]; 50 mM in 300 uL saline daily up to day 2, 7 days after injury
  anterior crural muscle twitch isometric torque: significantly increased
[2]; day 3, 50 mM in 300 uL saline daily up to day 2
  percent recovery of muscle function: ~10%
[2]; day 7, 50 mM in 300 uL saline daily up to day 2
  percent recovery of muscle function: ~35%
[3]
  muscle structure (H&E): most preserved muscle structure
  number of live nuclei (TUNEL): increased number of live nuclei
[3]; vs control and adenosine
  area of fiber: significantly increased area of fiber
C2C12 mouse myoblasts [4]; 7 days hypoxia
  cell population under hypoxic condition: maintained minimal population with significant difference when compared to control
C2C12 mouse myoblasts [4]
  proliferation after drug and hypoxia removed: regained their proliferation capability
C2C12 mouse myoblasts [5]; 5 mM, with or without ADA
  metabolism after drug and hypoxia removed: regained metabolism activity
C2C12 mouse myoblasts [5]; 5 mM, with or without ADA, MTS
  cellular metabolism under hypoxia: kept in hypometabolic steady state without being affected by ADA
C2C12 mouse myoblasts [5]; hypoxia, in the presence and absence of ADA
  metabolic activity per cell vs adenosine treated cells: significantly lower metabolic activity per cell
